The results in this text go back to US20150252022A1, “RETINOIC ACID RECEPTOR-RELATED ORPHAN RECEPTOR MODULATORS AND USES THEREOF” (INNOV17 LLC, priority 2014, published 2015).

SMILES strings stand for the structures. A value given as a limit tells only on which side of the number the result lay.

Common to all, as to format: cell-based
What all share (details): 72 h; human CD4+ T cells under TH17-polarizing conditions, 3 days, supernatant ELISA

The subject of test [1] is IL-21. The test can be described thus: Human TH17 Cytokine Inhibition as measured by ELISA (IL-21). As to the method: (§1) Peripheral blood mononuclear cells (PBMCs) were sourced from freshly prepared leukocyte enriched plasma (buffy coat) from healthy donors (New York Blood Center). PBMCs were isolated by density gradient centrifugation using Ficoll-Paque™ PLUS (GE Healthcare). Human CD4+ T cells were seeded into 96-well plates (5×10^4 cells/well) and activated with plate-bound anti-human (h)-CD3 antibody and soluble h-aCD28 (both at 1 ug/ml; eBioscience) and differentiated into TH17 cells with 20 ng/mL h-IL-6, 5 ng/mL h-TGF-β1, 10 ng/mL h-IL-23 (eBioscience) and 10 ng/mL IL-1β (Miltenyi Biotec) in serum-free TexMACS Medium (Miltenyi Biotec) supplemented with 1% Penicillin/Streptomycin (Lonza) for 3 days. CD4+ T cells propagated under TH17-polarizing conditions were cultured in the presence or absence of various concentrations of compounds with a final concentration of 0.1% DMSO. Supernatants were collected and stored at −20° C. until assayed for IL-17A, IL-17F and IL-21 levels by “Ready-Set-Go” ELISA kits (eBioscience) as per manufacturer's instructions. Endpoint absorbance was read at 450 nm using a microplate reader (Perkin Elmer).

For test [2], the system named is IL-17F. The experiment in a line: Human TH17 Cytokine Inhibition as measured by ELISA (IL-17F). As to the method:
as §1

Test [3] relates to IL-17A. The experiment in a line: Human TH17 Cytokine Inhibition as measured by ELISA (IL-17A). As to the method:
as §1

As to `CC(C)CNC(=O)N1CCC(CN2CCc3cc(-c4cnn(C(=O)NCC(C)C)c4)ccc32)CC1` [Example 74D, N-isobutyl-4-((5-(1-(isobutylcarbamoyl)-1H-pyrazol-4-yl)indolin-1-yl)methyl)piperidine-1-carboxamide], the concentration for half-maximal inhibition (IC50) in test [1], in test [2] and in test [3] was less than 10 µM in each case.

As to `O=C(NCc1ccccc1)N1CCC(CN2CCc3cc(-c4cn[nH]c4)ccc32)CC1` [Example 76, 4-((5-(1H-pyrazol-4-yl)indolin-1-yl)methyl)-N-benzylpiperidine-1-carboxamide], the IC50 in test [1], in test [2] and in test [3] was less than 10 µM each time.

For the compound `O=C(CCc1ccccc1)N1CCC(Cn2ccc3cc(-c4cn[nH]c4)ccc32)CC1` [Example 79, 1-(4-((5-(1H-pyrazol-4-yl)-1H-indol-1-yl)methyl)piperidin-1-yl)-3-phenylpropan-1-one], the IC50 in test [1], in test [2] and in test [3] was less than 10 µM each time.

As to `O=C(Cc1ccccc1)N1CCC(Cn2ccc3cc(-c4cn[nH]c4)ccc32)CC1` [Example 88, 1-(4-((5-(1H-pyrazol-4-yl)-1H-indol-1-yl)methyl)piperidin-1-yl)-2-phenylethanone], the IC50 in test [1], in test [2] and in test [3] was less than 10 µM each time.

On to `O=C(CCCc1ccccc1)N1CCC(Cn2ccc3cc(-c4cn[nH]c4)ccc32)CC1` [Example 89, 1-(4-((5-(1H-pyrazol-4-yl)-1H-indol-1-yl)methyl)piperidin-1-yl)-4-phenylbutan-1-one], for which the IC50 in test [1], in test [2] and in test [3] was less than 10 µM in each case.

For the compound `O=C(CCc1cnccn1)N1CCC(Cn2ccc3cc(-c4cn[nH]c4)ccc32)CC1` [Example 90, 1-(4-((5-(1H-pyrazol-4-yl)-1H-indol-1-yl)methyl)piperidin-1-yl)-3-(pyrazin-2-yl)propan-1-one], the IC50 in test [1] is less than 10 µM; in test [2] it was less than 10 µM; in test [3], greater than 10 µM.

Regarding `O=C(CCc1ccccn1)N1CCC(Cn2ccc3cc(-c4cn[nH]c4)ccc32)CC1` [Example 91, 1-(4-((5-(1H-pyrazol-4-yl)-1H-indol-1-yl)methyl)piperidin-1-yl)-3-(pyridin-2-yl)propan-1-one], the IC50 in test [1], in test [2] and in test [3] was less than 10 µM throughout.

Consider `O=C(COc1ccccc1)N1CCC(Cn2ccc3cc(-c4cn[nH]c4)ccc32)CC1` [Example 92, 1-(4-((5-(1H-pyrazol-4-yl)-1H-indol-1-yl)methyl)piperidin-1-yl)-2-phenoxyethanone], for which the IC50 in test [1], in test [2] and in test [3] was less than 10 µM in each case.

As for `O=C(CCc1ccc(F)cc1)N1CCC(Cn2ccc3cc(-c4cn[nH]c4)ccc32)CC1` [Example 93, 1-(4-((5-(1H-pyrazol-4-yl)-1H-indol-1-yl)methyl)piperidin-1-yl)-3-(4-fluorophenyl)propan-1-one], the IC50 in test [1], in test [2] and in test [3] was less than 10 µM each time.

As to `O=C(CCc1cccc(F)c1)N1CCC(Cn2ccc3cc(-c4cn[nH]c4)ccc32)CC1` [Example 94, 1-(4-((5-(1H-pyrazol-4-yl)-1H-indol-1-yl)methyl)piperidin-1-yl)-3-(3-fluorophenyl)propan-1-one], the IC50 in test [1], in test [2] and in test [3] was less than 10 µM throughout.

Consider `O=C(CCc1ccccc1F)N1CCC(Cn2ccc3cc(-c4cn[nH]c4)ccc32)CC1` [Example 95, 1-(4-((5-(1H-pyrazol-4-yl)-1H-indol-1-yl)methyl)piperidin-1-yl)-3-(2-fluorophenyl)propan-1-one], for which the IC50 in test [1], in test [2] and in test [3] was less than 10 µM throughout.

Consider `O=C(CCc1ccccc1)N1CCC(CN2CCCc3cc(-c4cn[nH]c4)ccc32)CC1` [Example 98, 1-(4-((6-(1H-pyrazol-4-yl)-3,4-dihydroquinolin-1(2H)-yl)methyl)piperidin-1-yl)-3-phenylpropan-1-one], for which the IC50 in test [1], in test [2] and in test [3] was less than 10 µM in each case.

On to `O=C(CC1CCCCC1)N1CCC(CN2CCCc3cc(-c4cn[nH]c4)ccc32)CC1` [Example 99, 1-(4-((6-(1H-pyrazol-4-yl)-3,4-dihydroquinolin-1(2H)-yl)methyl)piperidin-1-yl)-2-cyclohexylethanone], for which the values for the IC50 in test [1], in test [2] and in test [3] were greater than 10 µM, less than 10 µM and less than 10 µM, respectively.

Regarding `O=C(Cc1ccccc1)N1CCC(CN2CCCc3cc(-c4cn[nH]c4)ccc32)CC1` [Example 102, 1-(4-((6-(1H-pyrazol-4-yl)-3,4-dihydroquinolin-1(2H)-yl)methyl)piperidin-1-yl)-2-phenylethanone], the IC50 in test [1] was greater than 10 µM; in test [2], less than 10 µM; in test [3] it was less than 10 µM.

Turning to `O=C(CCCc1ccccc1)N1CCC(CN2CCCc3cc(-c4cn[nH]c4)ccc32)CC1` [Example 103, 1-(4-((6-(1H-pyrazol-4-yl)-3,4-dihydroquinolin-1(2H)-yl)methyl)piperidin-1-yl)-4-phenylbutan-1-one], the IC50 in test [1] is greater than 10 µM; in test [2], less than 10 µM; in test [3] it was less than 10 µM.

On to `CC1(C)CC(Cn2ccc3cc(-c4cn[nH]c4)ccc32)CN1C(=O)c1ccccc1` (stereo not drawn) [Example 108, (4-((5-(1H-pyrazol-4-yl)-1H-indol-1-yl)methyl)-2,2-dimethylpyrrolidin-1-yl)(phenyl)methanone], for which the IC50 in test [1], in test [2] and in test [3] was less than 10 µM throughout.

On to `CC1(C)CC(Cn2ccc3cc(-c4cn[nH]c4)ccc32)CN1C(=O)Cc1ccccc1` (stereo not drawn) [Example 109], for which the IC50 in test [1], in test [2] and in test [3] was less than 10 µM each time.

Consider `CC1(C)CC(Cn2ccc3cc(-c4cn[nH]c4)ccc32)CN1C(=O)CCc1ccccc1` (stereo not drawn) [Example 110], for which the half-maximal inhibitory concentration (IC50) in test [1], in test [2] and in test [3] was less than 10 µM in each case.

Consider `CC1(C)CC(Cn2ccc3cc(-c4cn[nH]c4)ccc32)CN1C(=O)CC1CCCCC1` (stereo not drawn) [Example 111], for which the IC50 in test [1], in test [2] and in test [3] was less than 10 µM in each case.

As to `O=C(CCc1ccccc1)N1CCC(Cn2ccc3cc(-c4c[nH]nn4)ccc32)CC1` [Example 112, 1-(4-((5-(1H-1,2,3-triazol-4-yl)-1H-indol-1-yl)methyl)piperidin-1-yl)-3-phenylpropan-1-one], the IC50 in test [1], in test [2] and in test [3] was less than 10 µM each time.

For the compound `Cn1cc(-c2ccc3c(ccn3CC3CCN(C(=O)CCc4ccccc4)CC3)c2)nn1` [Example 113, 1-(4-((5-(1-methyl-1H-1,2,3-triazol-4-yl)-1H-indol-1-yl)methyl)piperidin-1-yl)-3-phenylpropan-1-one], the IC50 in test [1], in test [2] and in test [3] was less than 10 µM throughout.

In the case of `Cc1[nH]ncc1-c1ccc2c(ccn2CC2CCN(C(=O)CCc3ccccc3)CC2)c1` [Example 115, 1-(4-((5-(5-methyl-1H-pyrazol-4-yl)-1H-indol-1-yl)methyl)piperidin-1-yl)-3-phenylpropan-1-one], the IC50 in test [1], in test [2] and in test [3] was less than 10 µM each time.
